Inhibition data for four molecules are collected here from patent US20060293320A1, “Heteroaryl derivatives for treating viruses” (Genelabs Technologies, Inc., priority 2005, published 2006).

The structures appear in SMILES notation.

The inhibition is the share of the control response that was lost under treatment.

This experiment relates to HCV replicon I389luc-ubi-neo/NS3-3′/ET in ET (Huh-lucubineo-ET) cell line. Nature of the experiment: Replicon assay (luciferase reporter). The format is cell-based. The settings on record: Hepatitis C virus; tested at 33 μM; ET (Huh-lucubineo-ET) replicon cells, luciferase activity, relative to no compound control; read-out: % inhibition of replication. The procedure: A cell line, ET (Huh-lucubineo-ET) was used for screening of compounds of the present invention for HCV RNA dependent RNA polymerase. The ET cell line was stably transfected with RNA transcripts harboring a I389luc-ubi-neo/NS3-3′/ET; replicon with firefly luciferase-ubiquitin-neomycin phosphotransferase fusion protein and EMCV-IRES driven NS3-5B polyprotein containing the cell culture adaptive mutations (E1202G; T1280I; K1846T) (Krieger at al, 2001 and unpublished). The ET cells were grown in DMEM, supplemented with 10% fetal calf serum, 2 mM Glutamine, Penicillin (100 IU/mL)/Streptomycin (100 μg/mL), 1× nonessential amino acids, and 250 μg/mL G418 (“Geneticin”). They were all available through Life Technologies (Bethesda, Md.). The cells were plated at 0.5-1.0×10^4 cells/well in the 96 well plates and incubated for 24 hrs before adding nucleoside analogs. Then the compounds were added to the cells to achieve a final concentration of 5 or 50 μM. Luciferase activity was measured 48-72 hours later by adding a lysis buffer and the substrate (Catalog number Glo-lysis buffer E2661 and Bright-Glo leuciferase system E2620 Promega, Madison, Wis.). Cells should not be too confluent during the assay. Percent inhibition of replication was plotted relative to no compound control. Under the same condition, cytotoxicity of the compounds was determined using cell proliferation reagent, WST-1 (Roche, Germany). The compounds showing potent antiviral activities, but no significant cytotoxicities were chosen for further evaluation. For these determinations, a 10-point, 2-fold serial dilution for each compound was used which spans a concentration range of 1000 fold. IC50 and TC50 values were calculated by fitting % inhibition at each concentration to the following equation: % inhibition=100%/[(IC50/[I])^b+1] where b is Hill's coefficient.
The % inhibition at a particular concentration was determined using the following equation: % Inhibition=100−[100*(Lum with inhibitor-bg)/(Lum with no inhibitor-bg)] where bg was the background with no replicon cell, and Lum was the luminescence intensity of the reporter luciferase gene.
As for `Cc1nc(C)c(-c2ccc3cc(-c4c(C5CCCCC5)cc(C(=O)O)n4CC(=O)O)ccc3n2)s1` [Compound 30, 1-(carboxymethyl)-4-cyclohexyl-5-(2-(2,4-dimethylthiazol-5-yl)quinolin-6-yl)-1H-pyrrole-2-carboxylic acid], the inhibition at 33 µM was determined as 22%.

For `Cc1nc(C)c(-c2ccc3cc(-c4c(C5CCCCC5)cc(C(=O)O)n4CC(=O)OC(C)(C)C)ccc3n2)s1` [Compound 31, 1-((tert-butoxycarbonyl)methyl)-4-cyclohexyl-5-(2-(2,4-dimethylthiazol-5-yl)quinolin-6-yl)-1H-pyrrole-2-carboxylic acid], the inhibition at 33 µM was determined as 48%.

As to `Cc1nc(C)c(-c2ccc3cc(-c4c(C5CCCCC5)cc(C(=O)O)n4CC(=O)N4CCOCC4)ccc3n2)s1` [Compound 32, 4-cyclohexyl-5-(2-(2,4-dimethylthiazol-5-yl)quinolin-6-yl)-1-(2-morpholino-2-oxoethyl)-1H-pyrrole-2-carboxylic acid], the inhibition at 33 µM is 57%.

Regarding `Cc1nc(C)c(-c2ccc3cc(-c4c(C5CCCCC5)cc(C(=O)NCC(=O)O)n4CC(=O)N4CCOCC4)ccc3n2)s1` [Compound 33, 2-(4-cyclohexyl-5-(2-(2,4-dimethylthiazol-5-yl)quinolin-6-yl)-1-(2-morpholino-2-oxoethyl)-1H-pyrrole-2-carboxamido)acetic acid], the inhibition at 33 µM was found to be 17%.
